Patent EP1935887A1, “Heterocyclic substituted carbonyl derivatives and their use as dopamine D3 receptor ligands” (Aventis Pharmaceuticals Inc., priority 2001, dated 2002)

Molecular target: T1, Cloned Human Dopamine D3 Receptors (Homo sapiens, UniProt P35462)
T1 construct: expressed in transfected cells; membrane homogenate
Experiment: [N-Methyl-3H]Spiroperidol binding to cloned human dopamine D3 receptors
Conditions: Table 2; unit inferred; read-out: d3Ki
From the text: [N-Methyl-^3H]Spiroperidol Binding to Cloned Human Dopamine D3 Receptors
This assay measures the in vitro activity of compounds on cloned human dopamine (D3) receptors and predicts the direct dopamine-blocking properties of putative neuropsychiatric agents at human dopamine D3 receptors.
The D3 gene was isolated from a human striatal cDNA library (Stratagene). The gene was sequenced and sub-cloned into the expression vector RC/RSV (Invitrogen). CHO (Chinese Hamster Ovary) cells were stably transfected with 10 µg of the D3/RSV plasmid using the DOTAP method from Boehringer Mannheim and 72 clones that were G418 resistant were isolated. Using mRNA and binding displacement data a single high expressing clone was identified. This clone was then grown in large batches for the purpose of developing a 96 well format assay.
• 1. One plate (10 cm) with approximately 2-3 million D3 cells per plate is incubated with 1 ml of Trypsin-EDTA at room temperature for -2 min or until cells have lifted off plates. Four ml of Ham's F12 + 10% Fetal Bovine Serum + 1% Penicillin/Streptomycin + G418 (400 µg/ml) medium are added to resuspend cells and 1 ml of this is added to each large plate (15 cm) containing 19 ml of the same medium as mentioned above. • 2. The 5 large plates are incubated at 37°C + 5% CO2 for - 3 days or until the cells are confluent. • 3. After these plates are confluent, they are split into 10 large plates. Medium is aspirated off, 2 ml of Trypsin-EDTA are added to each plate and plates are incubated at RT for 2 min or until cells have lifted off the plate. Eight ml of the F12 medium (same medium as #1 above) are added to each plate (10 ml total) to resuspend the cells and 5 ml are transferred to the 2 new plates containing 15 ml of the F12 media. • 4. The 10 large plates are incubated at 37°C + 5% CO2 for ∼ 2 days or until the cells are confluent. • 5. The 10 large plates are split into 60 large plates (using Trypsin-EDTA as #3 except 4 ml of F12 medium are added to resuspend cells and 1 ml is aliquoted to 6 new plates containing 19 ml of F12 medium each). • 6. Plates are incubated at 37°C + 5% CO2 for - 3 days or until cell are confluent. • 7. The 60 large plates are then split into 60 roller bottles (100-150 million cells/bottle). Medium is aspirated off , 2 ml of Trypsin-EDTA are added to each plate and incubated at RT for -2 minutes or until cells have lifted off plates. Eight ml of F12 medium are added to each plate to resuspend cells and the entire 10 ml are added to 1 roller bottle containing 90 ml of the F12 medium. • 8. The 60 roller bottles are immediately placed on their sides and transferred to the roller bottle incubator. They are incubated at 37°C + 5% CO2 for ~ 3-5 days. Cells are spun at 30-40% motor speed in the Forma incubator. • 9. Medium is poured off and cells are washed 2X in PBS. • 10. Cells are then scraped off in 20 ml of PBS and the bottles are rinsed again with 5 ml of PBS to remove any remaining cells. Cells are stored on ice before membrane prepration. • 11. The yield for 60 D3 roller bottles has varied from - 260-500 mg. Note: All tissue culture reagents are from Gibco-BRL.
The cells are harvested into 250 ml centrifuge tubes with 100 volumes of cold phosphate buffered saline (PBS) and spun down (1200xG for 10 min at 4°C). The medium is removed and 100 ml PBS are added to each centrifuge tube, cells are resuspened and spun down again. The PBS is removed and the final pellet is homogenized in an appropriate volume of 10% DMSO with a polytron on ice at a medium setting.
A 200 µl sample membrane homogenate is added to 200 µl of 1% SDS, vortexed and allowed to stand for 5 min. Aliquots (25, 50 and 100 µl) of this mixture are assayed in duplicate following the standard Bio-Rad DC protein assay protocol (kit catalog number 500-0112) and using reagent S. Absorbance readings are made at 750 nm (note: the most accurate protein OD readings are between 0.1-0.5 units). […]

T1 sequence (P35462 whole entry): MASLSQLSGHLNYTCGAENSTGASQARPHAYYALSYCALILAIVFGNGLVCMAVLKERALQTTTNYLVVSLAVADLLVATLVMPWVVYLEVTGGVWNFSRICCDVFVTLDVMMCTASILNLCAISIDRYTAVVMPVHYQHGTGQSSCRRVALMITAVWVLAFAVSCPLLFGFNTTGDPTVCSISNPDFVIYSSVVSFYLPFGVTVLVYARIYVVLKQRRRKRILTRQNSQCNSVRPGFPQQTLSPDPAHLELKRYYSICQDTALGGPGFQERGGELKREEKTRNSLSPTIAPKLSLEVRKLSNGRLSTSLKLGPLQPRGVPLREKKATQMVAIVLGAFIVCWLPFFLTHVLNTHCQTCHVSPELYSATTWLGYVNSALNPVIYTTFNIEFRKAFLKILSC

Compound	Ki
CN(C(=O)CCCCN1CCN(c2csc3cc(F)ccc23)CC1)c1cccc2ccccc12 [compound 822138]	0.081 µM
CN(C(=O)CCCCN1CCN(c2csc3cc(F)ccc23)CC1)c1ccccc1F [compound 822139]	0.0212 µM
CN(C(=O)CCCCN1CCN(c2csc3cc(F)ccc23)CC1)c1ccc(C(C)(C)C)cc1 [compound 822140]	0.0128 µM
CN(C(=O)CCCCN1CCN(c2csc3cc(F)ccc23)CC1)c1cccc(Oc2ccccc2)c1 [compound 822142]	0.0391 µM
O=C(CCCCN1CCN(c2csc3cc(F)ccc23)CC1)N(Cc1ccccc1)c1cccc(Oc2ccccc2)c1 [compound 822143]	0.338 µM
COc1ccc(N(C)C(=O)CCCN2CCN(c3csc4cc(F)ccc34)CC2)cc1 [compound 822144]	0.144 µM
O=C(CCCN1CCN(c2csc3cc(F)ccc23)CC1)Nc1cccc2ccccc12 [compound 822145]	0.176 µM
CC(C)(C)c1ccc(NC(=O)CCCN2CCN(c3csc4cc(F)ccc34)CC2)cc1 [compound 822147]	0.217 µM
O=C(CCCN1CCN(c2csc3cc(F)ccc23)CC1)Nc1cccc(Oc2ccccc2)c1 [compound 822148]	0.0414 µM
O=C(NC1CC1)[C@@H]1C[C@H]1CN1CCN(c2csc3cc(C(F)(F)F)ccc23)CC1 [compound 822202]	0.0081 µM
O=C(NCc1cccnc1)[C@@H]1C[C@H]1CN1CCN(c2csc3cc(C(F)(F)F)ccc23)CC1 [compound 822203]	0.03 µM
O=C(NCc1ccc2c(c1)OCO2)[C@@H]1C[C@H]1CN1CCN(c2csc3cc(C(F)(F)F)ccc23)CC1 [compound 822204]	0.0126 µM
CC1C(CN2CCN(c3csc4cc(C(F)(F)F)ccc34)CC2)C1C(=O)NC1CCC1 (stereo not drawn) [compound 825857]	0.137 µM
CC1C(CN2CCN(c3csc4cc(C(F)(F)F)ccc34)CC2)C1C(=O)NC1CCCCC1 (stereo not drawn) [compound 825860]	0.13 µM
CC1C(CN2CCN(c3csc4cc(C(F)(F)F)ccc34)CC2)C1C(=O)NCc1ccc(N(C)C)cc1 (stereo not drawn) [compound 825871]	0.137 µM
CC1[C@@H](CN2CCN(c3csc4cc(C(F)(F)F)ccc34)CC2)[C@@H]1C(=O)NCC1CC1 (stereo partly drawn) [compound 825872]	0.104 µM
C[C@@]1(C(=O)NCc2ccc3ccccc3c2)C[C@H]1CN1CCN(c2csc3cc(C(F)(F)F)ccc23)CC1 [compound 825882]	0.186 µM
C[C@@]1(C(=O)NCc2ccc3c(c2)OCO3)C[C@H]1CN1CCN(c2csc3cc(C(F)(F)F)ccc23)CC1 [compound 825886]	0.0402 µM
C[C@@]1(C(=O)NCc2nc3ccccc3[nH]2)C[C@H]1CN1CCN(c2csc3cc(C(F)(F)F)ccc23)CC1 [compound 825887]	0.0904 µM
COc1cc(CNC(=O)[C@]2(C)C[C@H]2CN2CCN(c3csc4cc(C(F)(F)F)ccc34)CC2)cc(OC)c1OC [compound 825888]	0.0894 µM

Compound	Ki
C[C@@]1(C(=O)NC2CC2)C[C@H]1CN1CCN(c2csc3cc(C(F)(F)F)ccc23)CC1 [compound 825893]	0.0738 µM
CN(C)c1ccc(CNC(=O)[C@]2(C)C[C@H]2CN2CCN(c3csc4cc(C(F)(F)F)ccc34)CC2)cc1 [compound 825894]	0.059 µM
C[C@@]1(C(=O)NCC2CC2)C[C@H]1CN1CCN(c2csc3cc(C(F)(F)F)ccc23)CC1 [compound 825895]	0.0317 µM
C[C@@]1(C(=O)NCc2ccccc2)C[C@H]1CN1CCN(c2csc3cc(C(F)(F)F)ccc23)CC1 [compound 825896]	0.0533 µM
C[C@@]1(C(=O)NCc2ccco2)C[C@H]1CN1CCN(c2csc3cc(C(F)(F)F)ccc23)CC1 [compound 825897]	0.14 µM
C[C@@]1(C(=O)NCc2cccs2)C[C@H]1CN1CCN(c2csc3cc(C(F)(F)F)ccc23)CC1 [compound 825898]	0.049 µM
C[C@@]1(C(=O)NCc2ccc(C(F)(F)F)cc2)C[C@H]1CN1CCN(c2csc3cc(C(F)(F)F)ccc23)CC1 [compound 825899]	0.0429 µM
O=C(NCc1ccccn1)[C@@H]1C[C@H]1CN1CCN(c2csc3cc(C(F)(F)F)ccc23)CC1 [compound 826065]	0.175 µM
CN(C)c1ccc(CNC(=O)[C@@H]2C[C@H]2CN2CCN(c3csc4cc(C(F)(F)F)ccc34)CC2)cc1 [compound 826066]	0.0603 µM
O=C(NCC1CC1)[C@@H]1C[C@H]1CN1CCN(c2csc3cc(C(F)(F)F)ccc23)CC1 [compound 826067]	0.0193 µM
O=C(NCc1ccccc1)[C@@H]1C[C@H]1CN1CCN(c2csc3cc(C(F)(F)F)ccc23)CC1 [compound 826068]	0.0546 µM
O=C(NCc1ccco1)[C@@H]1C[C@H]1CN1CCN(c2csc3cc(C(F)(F)F)ccc23)CC1 [compound 826069]	0.0272 µM
O=C(NCc1cccs1)[C@@H]1C[C@H]1CN1CCN(c2csc3cc(C(F)(F)F)ccc23)CC1 [compound 826070]	0.0126 µM
O=C(NCc1ccc(C(F)(F)F)cc1)[C@@H]1C[C@H]1CN1CCN(c2csc3cc(C(F)(F)F)ccc23)CC1 [compound 826071]	0.165 µM
Cc1cccc(CNC(=O)[C@@H]2C[C@H]2CN2CCN(c3csc4cc(C(F)(F)F)ccc34)CC2)c1 [compound 826072]	0.0626 µM
O=C(NC1CCC1)[C@@H]1C[C@H]1CN1CCN(c2csc3cc(C(F)(F)F)ccc23)CC1 [compound 826073]	0.0323 µM
C[C@H](NC(=O)[C@@H]1C[C@H]1CN1CCN(c2csc3cc(C(F)(F)F)ccc23)CC1)c1ccccc1 [compound 826074]	0.0726 µM
O=C(NCc1cccc2ccccc12)[C@@H]1C[C@H]1CN1CCN(c2csc3cc(C(F)(F)F)ccc23)CC1 [compound 826075]	0.0556 µM
O=C(NC1CCCCC1)[C@@H]1C[C@H]1CN1CCN(c2csc3cc(C(F)(F)F)ccc23)CC1 [compound 826076]	0.015 µM

Same assay, conditions: Table 2 part the 10th table; read-out: d3Ki

Compound	Ki
C[C@@]1(C(=O)N2CCCCC2)C[C@H]1CN1CCN(c2csc3cc(C(F)(F)F)ccc23)CC1 [compound 825891]	0.118 µM
O=C([C@@H]1CCC[C@H]1N1CCN(c2csc3cc(F)ccc23)CC1)N1CCCCC1 [compound 826056]	0.0054 µM

Same assay, conditions: read-out: d3Ki

Compound	Ki
O=C(NCc1ccccn1)[C@@H]1CCC[C@H]1N1CCN(c2csc3cc(F)ccc23)CC1 [compound 825825]	0.152 µM
O=C(NC1CC1)[C@@H]1CCC[C@H]1N1CCN(c2csc3cc(F)ccc23)CC1 [compound 825827]	0.0548 µM
CN(C)c1ccc(CNC(=O)[C@@H]2CCC[C@H]2N2CCN(c3csc4cc(F)ccc34)CC2)cc1 [compound 825828]	0.0218 µM
O=C(NCc1ccccc1)[C@@H]1CCC[C@H]1N1CCN(c2csc3cc(F)ccc23)CC1 [compound 825830]	0.0646 µM
O=C(NCc1cccs1)[C@@H]1CCC[C@H]1N1CCN(c2csc3cc(F)ccc23)CC1 [compound 825832]	0.0603 µM
Cc1cccc(CNC(=O)[C@@H]2CCC[C@H]2N2CCN(c3csc4cc(F)ccc34)CC2)c1 [compound 825900]	0.0224 µM
O=C(NC1CCC1)[C@@H]1CCC[C@H]1N1CCN(c2csc3cc(F)ccc23)CC1 [compound 826057]	0.0909 µM
CC(NC(=O)[C@@H]1CCC[C@H]1N1CCN(c2csc3cc(F)ccc23)CC1)c1ccccc1 (stereo partly drawn) [compound 826058]	0.0452 µM
O=C(NCc1cccc2ccccc12)[C@@H]1CCC[C@H]1N1CCN(c2csc3cc(F)ccc23)CC1 [compound 826059]	0.0271 µM
O=C(NC1CCCCC1)[C@@H]1CCC[C@H]1N1CCN(c2csc3cc(F)ccc23)CC1 [compound 826060]	0.0402 µM
